According to patent publication US11866450B2, “Modulators of Cystic Fibrosis Transmembrane Conductance regulator, pharmaceutical compositions, methods of treatment, and process for making the modulators” (priority 2018, dated 2024):

Target: CFTR-mediated chloride transport (Homo sapiens, UniProt P13569)
Format: cell-based
Settings: enteroid cells incubated with test compound 18-24 hours, acute 10 μM forskolin and 300 nM Compound III; for Max. Activity: % of chloride transport with 3 μM Compound A, 3 μM Compound II and 300 nM acute Compound III triple combination control
Summary of the method: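 Membrane-potential fluorescence AUC over 15 min quantified CFTR chloride transport after acute forskolin (10 μM), IBMX (100 μM) and Compound III (300 nM) in chloride-free buffer. Human enteroid cells were pretreated with compound for 18–24 h; % Activity is relative to 3 μM Compound A + 3 μM Compound II + 300 nM Compound III.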

CFTR-mediated chloride transport, sequence (P13569 whole entry, looked up): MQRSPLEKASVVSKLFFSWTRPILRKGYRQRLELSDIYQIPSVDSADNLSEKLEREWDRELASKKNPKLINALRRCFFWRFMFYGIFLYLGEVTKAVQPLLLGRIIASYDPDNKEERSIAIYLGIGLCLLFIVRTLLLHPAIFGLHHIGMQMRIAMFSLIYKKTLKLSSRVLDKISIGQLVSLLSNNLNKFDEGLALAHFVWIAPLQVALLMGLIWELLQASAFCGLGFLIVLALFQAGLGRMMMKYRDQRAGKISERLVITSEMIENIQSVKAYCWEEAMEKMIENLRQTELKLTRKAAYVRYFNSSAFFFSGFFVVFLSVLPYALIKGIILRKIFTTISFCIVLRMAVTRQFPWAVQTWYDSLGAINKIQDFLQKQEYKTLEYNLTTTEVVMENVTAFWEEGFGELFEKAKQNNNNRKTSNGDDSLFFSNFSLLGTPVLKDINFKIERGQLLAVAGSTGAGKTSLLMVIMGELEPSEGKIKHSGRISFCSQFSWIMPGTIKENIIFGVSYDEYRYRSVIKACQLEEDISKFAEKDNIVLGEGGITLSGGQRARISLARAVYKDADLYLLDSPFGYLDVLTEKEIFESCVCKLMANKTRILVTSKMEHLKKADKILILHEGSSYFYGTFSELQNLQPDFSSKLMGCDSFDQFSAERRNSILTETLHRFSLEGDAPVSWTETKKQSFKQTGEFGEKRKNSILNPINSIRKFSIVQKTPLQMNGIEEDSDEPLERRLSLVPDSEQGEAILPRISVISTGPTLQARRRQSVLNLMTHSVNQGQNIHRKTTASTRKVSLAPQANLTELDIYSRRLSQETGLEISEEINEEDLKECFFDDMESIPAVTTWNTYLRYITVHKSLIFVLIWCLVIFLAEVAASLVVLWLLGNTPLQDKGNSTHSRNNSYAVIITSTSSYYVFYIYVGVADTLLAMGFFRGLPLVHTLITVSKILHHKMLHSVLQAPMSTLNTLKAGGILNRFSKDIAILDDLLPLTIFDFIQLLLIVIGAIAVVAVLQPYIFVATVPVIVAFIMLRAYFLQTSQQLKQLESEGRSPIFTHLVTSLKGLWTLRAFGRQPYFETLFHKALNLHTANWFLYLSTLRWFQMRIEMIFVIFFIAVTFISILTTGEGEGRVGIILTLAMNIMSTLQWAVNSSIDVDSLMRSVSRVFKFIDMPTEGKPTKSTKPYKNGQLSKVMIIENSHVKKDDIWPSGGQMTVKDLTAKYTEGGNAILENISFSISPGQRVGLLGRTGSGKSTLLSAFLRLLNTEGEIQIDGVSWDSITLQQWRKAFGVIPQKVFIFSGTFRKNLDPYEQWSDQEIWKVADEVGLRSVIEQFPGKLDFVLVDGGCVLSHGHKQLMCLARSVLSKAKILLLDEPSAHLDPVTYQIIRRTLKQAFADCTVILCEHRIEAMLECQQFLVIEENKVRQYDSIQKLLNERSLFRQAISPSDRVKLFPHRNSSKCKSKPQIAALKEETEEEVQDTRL

SMILES | EC50 | Max. Activity
CC(C)(C)CCCC1CCN(c2ccc3c(n2)N2C[C@@H](CCCNc4cccc(n4)S(=O)(=O)NC3=O)CC2(C)C)C1=O (stereo partly drawn) [Compound 102, (14S)-8-[3-(4,4-Dimethylpentyl)-2-oxopyrrolidin-1-yl]-12,12-dimethyl-2λ^6-thia-3,9,11,18,23-pentaazatetracyclo[17.3.1.111,14.05,10]tetracosa-1(22),5,7,9,19(23),20-hexaene-2,2,4-trione] | < 1 µM | +++ (+++ is >60%)
CC1(C)C[C@H]2CCCn3cc(cn3)S(=O)(=O)NC(=O)c3ccc(-n4ccc(OCCC5(C(F)(F)F)CC5)n4)nc3N1C2 (single isomer, unassigned) [Compound 119, 20,20-dimethyl-4-(3-{2-[1-(trifluoromethyl)cyclopropyl]ethoxy}-1H-pyrazol-1-yl)-10λ^6-thia-1,3,9,13,14-pentaazatetracyclo[16.2.1.111,14.02,7]docosa-2,4,6,11(22),12-pentaene-8,10,10-trione] | < 1 µM | +++ (+++ is >60%)
CC1(C)C[C@H]2CCCCn3cc(cn3)S(=O)(=O)NC(=O)c3ccc(-n4ccc(OCCC5(C(F)(F)F)CC5)n4)nc3N1C2 (single isomer, unassigned) [Compound 134, 21,21-Dimethyl-4-(3-{2-[1-(trifluoromethyl)cyclopropyl]ethoxy}-1H-pyrazol-1-yl)-10λ^6-thia-1,3,9,13,14-pentaazatetracyclo[17.2.1.111,14.02,7]tricosa-2,4,6,11(23),12-pentaene-8,10,10-trione] | < 1 µM | + (+ is <30%)
CC(C)(C)COc1ccn(-c2ccc3c(n2)N2C[C@H](CCNc4cccc(n4)S(=O)(=O)NC3=O)CC2(C)C)n1 (single isomer, unassigned) [Compound 2, 11-[3-(2,2-dimethylpropoxy)-1H-pyrazol-1-yl]-7,7-dimethyl-17λ^6-thia-2,8,10,16,22-pentaazatetracyclo[16.3.1.15,8.09,14]tricosa-1(21),9(14),10,12,18(22),19-hexaene-15,17,17-trione] | 1 to 3 µM | +++ (+++ is >60%)
CN1CCC[C@H]2CN(c3nc(-n4ccc(OCCC(C5CC5)C5CC5)n4)ccc3C(=O)NS(=O)(=O)c3cccc1n3)C(C)(C)C2 (single isomer, unassigned) [Compound 204, 8-[3-(3,3-dicyclopropylpropoxy)-1H-pyrazol-1-yl]-12,12,18-trimethyl-2λ^6-thia-3,9,11,18,23-pentaazatetracyclo[17.3.1.111,14.05,10]tetracosa-1(22),5,7,9,19(23),20-hexaene-2,2,4-trione] | > 3 µM | + (+ is <30%)
CC1(C)C[C@H]2CCCCc3cccc(c3)S(=O)(=O)NC(=O)c3ccc(-n4ccc(OCCC5(C(F)(F)F)CC5)n4)nc3N1C2 (single isomer, unassigned) [Compound 57, 12,12-dimethyl-8-(3-{2-[1-(trifluoromethyl)cyclopropyl]ethoxy}-1H-pyrazol-1-yl)-2λ^6-thia-3,9,11-triazatetracyclo[17.3.1.111,14.05,10]tetracosa-1(22),5,7,9,19(23),20-hexaene-2,2,4-trione] | < 1 µM | ++ (++ is 30-60%)
CC1(C)CC[C@H]2CNc3cccc(n3)S(=O)(=O)NC(=O)c3ccc(-n4ccc(OCCC5(C(F)(F)F)CC5)n4)nc3N21 (single isomer, unassigned) [Compound 50, 7,7-dimethyl-11-(3-{2-[1-(trifluoromethyl)cyclopropyl]ethoxy}-1H-pyrazol-1-yl)-17λ^6-thia-2,8,10,16,22-pentaazatetracyclo[16.3.1.04,8.09,14]docosa-1(22),9,11,13,18,20-hexaene-15,17,17-trione] | > 3 µM | + (+ is <30%)
CC1(C)C[C@@H]2CCCNc3cc(O)cc(n3)S(=O)(=O)NC(=O)c3ccc(-n4ccc(OCCC5C6(CC6)C56CC6)n4)nc3N1C2 [Compound 264, (14S)-8-[3-(2-{Dispiro[2.0.2.1]heptan-7-yl}ethoxy)-1H-pyrazol-1-yl]-21-hydroxy-12,12-dimethyl-2λ^6-thia-3,9,11,18,23-pentaazatetracyclo[17.3.1.111,14.05,10]tetracosa-1(23),5,7,9,19,21-hexaene-2,2,4-trione] | < 1 µM | +++ (+++ is >60%)
CC1(C)C[C@@H]2CCCNc3cccc(n3)S(=O)(=O)NC(=O)c3ccc(N4CC[C@H](OCCC56CC7CC(CC(C7)C5)C6)C4=O)nc3N1C2 (single isomer, unassigned) [Compound 241] | < 1 µM | ++ (++ is 30-60%)
CC(C)(C)CCN1CCN(c2ccc3c(n2)N2C[C@@H](CCCNc4cccc(n4)S(=O)(=O)NC3=O)CC2(C)C)C1=O [Compound 128, (14S)-8-[3-(3,3-dimethylbutyl)-2-oxoimidazolidin-1-yl]-12,12-dimethyl-2λ^6-thia-3,9,11,18,23-pentaazatetracyclo[17.3.1.111,14.05,10]tetracosa-1(22),5,7,9,19(23),20-hexaene-2,2,4-trione] | < 1 µM | +++ (+++ is >60%)
CC1(C)C[C@H]2C[C@@H](F)CNc3cccc(n3)S(=O)(=O)NC(=O)c3ccc(-n4ccc(OCCC5C6(CC6)C56CC6)n4)nc3N1C2 (single isomer, unassigned) [Compound 307, 8-[3-(2-{dispiro[2.0.2.1]heptan-7-yl}ethoxy)-1H-pyrazol-1-yl]-16-fluoro-12,12-dimethyl-2λ^6-thia-3,9,11,18,23-pentaazatetracyclo[17.3.1.111,14.05,10]tetracosa-1(22),5,7,9,19(23),20-hexaene-2,2,4-trione] | > 3 µM | + (+ is <30%)
CC1(C)C[C@@H]2CCCNc3cccc(n3)S(=O)(=O)NC(=O)c3ccc(N4CCN(CC5CCC(F)(F)CC5)C4=O)nc3N1C2 [Compound 214, (14S)-8-{3-[(4,4-Difluorocyclohexyl)methyl]-2-oxoimidazolidin-1-yl}-12,12-dimethyl-2λ^6-thia-3,9,11,18,23-pentaazatetracyclo[17.3.1.111,14.05,10]tetracosa-1(22),5,7,9,19(23),20-hexaene-2,2,4-trione] | < 1 µM | ++ (++ is 30-60%)
Cc1cn2nc1S(=O)(=O)NC(=O)c1ccc(-n3ccc(OCCC(C4CC4)C4CC4)n3)nc1N1C[C@H](CCC2)CC1(C)C (single isomer, unassigned) [Compound 201, 4-[3-(3,3-Dicyclopropylpropoxy)-1H-pyrazol-1-yl]-12,20,20-trimethyl-10λ^6-thia-1,3,9,14,22-pentaazatetracyclo[16.2.1.111,14.02,7]docosa-2(7),3,5,11(22),12-pentaene-8,10,10-trione] | > 3 µM | + (+ is <30%)
CC1(C)C[C@H]2CCCCc3ccc(cc3)S(=O)(=O)NC(=O)c3ccc(-n4ccc(OCCC5(C(F)(F)F)CC5)n4)nc3N1C2 (single isomer, unassigned) [Compound 54, 12,12-Dimethyl-8-(3-{2-[1-(trifluoromethyl)cyclopropyl]ethoxy}-1H-pyrazol-1-yl)-2λ^6-thia-3,9,11-triazatetracyclo[17.2.2.111,14.05,10]tetracosa-1(21),5,7,9,19,22-hexaene-2,2,4-trione] | 1 to 3 µM | ++ (++ is 30-60%)
